Columns and labels:
Type in all cases: cell-based
T24 bladder cancer cells = experiment: Cancer cell survival (CellTiter-Glo), T24; conditions: 72 h
Experimental: (§1) The cells were prepared as follows. Cells were harvested during logarithmic growth, counted, and adjusted to 4.44×10^4 cells/mL with culture media. 90 μL of suspended cells were added to wells of 96-well plates for a final cell count of 4×10^3 cells/well. The plates were incubated overnight at 37 C with 5% CO2 overnight.
(§2) The test compounds were assayed as follows. Compound solutions were mixed at 10× final concentrations in cell media: 1 μM-10 mM (fatty acids) or 100 nM-1 mM (all other compounds). […] of solution was added to each well of cells in triplicate for each concentration. Well plates were incubated for 72 h at 37 C with 5% CO2 and then assayed with CellTiter-Glo by adding 50 μL of CTG solution to each well. Cells were lysed by shaking on an orbital shaker for 5 min. Plates were incubated at room temperature for 20 min and then each well's luminescence was measured. The surviving percentage of cells was determined as:
(§3) Survival %=(LumTest article−LumMedium control)/(LumNone treated−LumMedium control)[…]
Efficacy was assessed at nine concentration levels for each compound and the 50% inhibition concentration (IC50) determined for each compound.

[1] = system: Daudi lymphoma cancer cells; experiment: Cancer cell survival (CellTiter-Glo), Daudi; conditions: 72 h
Experimental: as §1, §2, §3
Activity was assessed at nine concentration levels for each compound and the 50% inhibition concentration (IC50) determined for each compound.

MCF7 breast cancer cells = experiment: Cancer cell survival (CellTiter-Glo), MCF7; conditions: 72 h
Experimental: as §1, §2, §3
(§4) Cytotoxicity was assessed at nine concentration levels for each compound and the 50% inhibition concentration (IC50) determined for each compound.

[2] = system: HCT 116 colorectal cancer cells; experiment: Cancer cell survival (CellTiter-Glo), HCT 116; conditions: HCT 116 cells, 72 h
Experimental: as §1, §2, §3, §4

A549 lung cancer cells = experiment: Cancer cell survival (CellTiter-Glo), A549; conditions: 72 h
Experimental: as §1, §2, §3, §4

[3] = system: PC-3 prostate cancer cells; experiment: Cancer cell survival (CellTiter-Glo), PC-3; conditions: PC-3 cells, 72 h
Experimental: as §1, §2, §3, §4

A-431 skin cancer cells = experiment: Cancer cell survival (CellTiter-Glo), A-431; design: Cell survival at given concentration: unit not given here; conditions: A-431 cells, 72 h
Experimental: as §1, §2, §3, §4

AGS stomach cancer cells = experiment: Cancer cell survival (CellTiter-Glo), AGS; design: Cell survival at given concentration: unit not given here
Experimental: as §1, §2, §3, §4

CC(O)CCO (stereo not drawn) [butanediol]
Cell survival at given concentration (T24 bladder cancer cells; 1 μM, Table 3.2): 1.02
Cell survival at given concentration (T24 bladder cancer cells; 3 μM, Table 3.2): 1.03
Cell survival at given concentration (T24 bladder cancer cells; 10 μM, Table 3.2): 0.99
Cell survival at given concentration (T24 bladder cancer cells; 32 μM, Table 3.2): 1.00
Cell survival at given concentration (T24 bladder cancer cells; 100 μM, Table 3.2): 1.01
Cell survival at given concentration (T24 bladder cancer cells; 317 μM): 1.03
Cell survival at given concentration (T24 bladder cancer cells; 1 mM): 1.02
Cell survival at given concentration (T24 bladder cancer cells; 3 mM): 1.00
Cell survival at given concentration (T24 bladder cancer cells; 10 mM): 1.00
Cell survival at given concentration ([1]; 1 μM, Table 4.2): 0.98
Cell survival at given concentration ([1]; 3 μM, Table 4.2): 0.97
Cell survival at given concentration ([1]; 10 μM, Table 4.2): 0.97
Cell survival at given concentration ([1]; 32 μM, Table 4.2): 0.98
Cell survival at given concentration ([1]; 100 μM, Table 4.2): 1.00
Cell survival at given concentration ([1]; 317 μM): 1.01
Cell survival at given concentration ([1]; 1 mM): 1.00
Cell survival at given concentration ([1]; 3 mM): 1.00
Cell survival at given concentration ([1]; 10 mM): 1.00
Cell survival at given concentration (MCF7 breast cancer cells; 1 μM, Table 5.2): 1.00
Cell survival at given concentration (MCF7 breast cancer cells; 3 μM, Table 5.2): 0.99
Cell survival at given concentration (MCF7 breast cancer cells; 10 μM, Table 5.2): 0.98
Cell survival at given concentration (MCF7 breast cancer cells; 32 μM, Table 5.2): 1.02
Cell survival at given concentration (MCF7 breast cancer cells; 100 μM, Table 5.2): 1.03
Cell survival at given concentration (MCF7 breast cancer cells; 317 μM): 1.01
Cell survival at given concentration (MCF7 breast cancer cells; 1 mM): 1.00
Cell survival at given concentration (MCF7 breast cancer cells; 3 mM): 0.98
Cell survival at given concentration (MCF7 breast cancer cells; 10 mM): 0.96
Cell survival at given concentration ([2]; 1 μM, Table 6.2): 0.98
Cell survival at given concentration ([2]; 3 μM, Table 6.2): 0.96
Cell survival at given concentration ([2]; 10 μM, Table 6.2): 0.98
Cell survival at given concentration ([2]; 32 μM, Table 6.2): 0.97
Cell survival at given concentration ([2]; 100 μM, Table 6.2): 1.00
Cell survival at given concentration ([2]; 317 μM): 1.02
Cell survival at given concentration ([2]; 1 mM): 1.01
Cell survival at given concentration ([2]; 3 mM): 0.99
Cell survival at given concentration ([2]; 10 mM): 0.95
Cell survival at given concentration (A549 lung cancer cells; 1 μM, Table 7.2): 0.95
Cell survival at given concentration (A549 lung cancer cells; 3 μM, Table 7.2): 0.97
Cell survival at given concentration (A549 lung cancer cells; 10 μM, Table 7.2): 1.03
Cell survival at given concentration (A549 lung cancer cells; 32 μM, Table 7.2): 1.01
Cell survival at given concentration (A549 lung cancer cells; 100 μM, Table 7.2): 1.00
Cell survival at given concentration (A549 lung cancer cells; 317 μM): 1.02
Cell survival at given concentration (A549 lung cancer cells; 1 mM): 1.01
Cell survival at given concentration (A549 lung cancer cells; 3 mM): 0.97
Cell survival at given concentration (A549 lung cancer cells; 10 mM): 0.98
Cell survival at given concentration ([3]; 1 μM, Table 8.2): 1.00
Cell survival at given concentration ([3]; 3 μM, Table 8.2): 0.99
Cell survival at given concentration ([3]; 10 μM, Table 8.2): 1.03
Cell survival at given concentration ([3]; 32 μM, Table 8.2): 1.02
Cell survival at given concentration ([3]; 100 μM, Table 8.2): 1.00
Cell survival at given concentration ([3]; 317 μM): 1.02
Cell survival at given concentration ([3]; 1 mM): 0.97
Cell survival at given concentration ([3]; 3 mM): 0.98
Cell survival at given concentration ([3]; 10 mM): 0.96
Cell survival at given concentration (A-431 skin cancer cells; 1 μM, Table 9.2): 1.02
Cell survival at given concentration (A-431 skin cancer cells; 3 μM, Table 9.2): 1.03
Cell survival at given concentration (A-431 skin cancer cells; 10 μM, Table 9.2): 1.04
Cell survival at given concentration (A-431 skin cancer cells; 32 μM, Table 9.2): 1.04
Cell survival at given concentration (A-431 skin cancer cells; 100 μM, Table 9.2): 1.03
Cell survival at given concentration (A-431 skin cancer cells; 317 μM): 1.04
Cell survival at given concentration (A-431 skin cancer cells; 1 mM): 1.02
Cell survival at given concentration (A-431 skin cancer cells; 3 mM): 1.02
Cell survival at given concentration (A-431 skin cancer cells; 10 mM): 1.01
Cell survival at given concentration (AGS stomach cancer cells; 1 μM, Table 10.2): 1.01
Cell survival at given concentration (AGS stomach cancer cells; 3 μM, Table 10.2): 1.02
Cell survival at given concentration (AGS stomach cancer cells; 10 μM, Table 10.2): 1.03
Cell survival at given concentration (AGS stomach cancer cells; 32 μM, Table 10.2): 1.05
Cell survival at given concentration (AGS stomach cancer cells; 100 μM, Table 10.2): 1.04
Cell survival at given concentration (AGS stomach cancer cells; 317 μM): 1.02
Cell survival at given concentration (AGS stomach cancer cells; 1 mM): 1.06
Cell survival at given concentration (AGS stomach cancer cells; 3 mM): 1.02
Cell survival at given concentration (AGS stomach cancer cells; 10 mM): 0.98

Source: US20210085640A1, “ACYLATED CATECHIN POLYPHENOLS AND METHODS OF THEIR USE FOR THE TREATMENT OF CANCER” (Flagship Pioneering Innovations V, Inc., priority 2018, published 2021)
